Counter-ions that a name gives are not always drawn.
tested on: Human platelet aggregation caused by ADP; assay: Inhibition of ADP-induced platelet aggregation (Mimic-human PRP); assay type: cell-based; settings: 20 μM ADP, human platelet concentrate diluted with PPP, absorption at 595 nm
Method in brief: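 Ki came from non-linear sigmoidal fits of inhibition, measured as the 3-min rise in absorbance at 595 nm after 20 μM ADP, relative to 0/20 μM ADP controls. Platelets (3–4×10^8/mL in PPP-diluted human PRP) were exposed to 0.01–30 μM compound for 20 min at room temperature beforehand.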

Row | Structure (SMILES) | Ki [nM]
1 | CCCc1cc2c(N3CCn4c(nnc4C(F)(F)F)C3)nc(OCCNC(=O)C(C)(CO)CO)nc2s1 [Example 7-34, 3-Hydroxy-2-hydroxymethyl-2-methyl-N-{2-[6-propyl-4-(3-trifluoromethyl-5,6-dihydro-8H-[1,2,4]triazolo[4,3-a]pyrazin-7-yl)-thieno[2,3-d]pyrimidin-2-yloxy]-ethyl}-propionamide] | 16
2 | CCCc1cc2c(N3CCn4c(nnc4C(F)(F)F)C3)nc(OCCNC(=O)C(C)(C)CO)nc2s1 [Example 7-35, 3-Hydroxy-2,2-dimethyl-N-{2-[6-propyl-4-(3-trifluoromethyl-5,6-dihydro-8H-[1,2,4]triazolo[4,3-a]pyrazin-7-yl)-thieno[2,3-d]pyrimidin-2-yloxy]-ethyl}-propionamide] | 10
3 | CCCc1cc2c(N3CCn4c(nnc4C(F)(F)F)C3)nc(OC[C@H]3CCCN3)nc2s1 [Example 7-36, Hydrochloric acid salt of 7-[6-Propyl-2-((R)-1-pyrrolidin-2-ylmethoxy)-thieno[2,3-d]pyrimidin-4-yl]-3-trifluoromethyl-5,6,7,8-tetrahydro-[1,2,4]triazolo[4,3-a]pyrazine] | 100
4 | CCCc1cc2c(N3CCn4c(nnc4C(F)(F)F)C3)nc(OC[C@@H]3CCCN3)nc2s1 [Example 7-37, Hydrochloric acid salt of 7-[6-Propyl-2-((S)-1-pyrrolidin-2-ylmethoxy)-thieno[2,3-d]pyrimidin-4-yl]-3-trifluoromethyl-5,6,7,8-tetrahydro-[1,2,4]triazolo[4,3-a]pyrazine] | 280
5 | CCCc1cc2c(N3CCn4c(nnc4C(F)(F)F)C3)nc(NCCN)nc2s1 [Example 7-38, Hydrochloric acid salt of N-1-[6-Propyl-4-(3-trifluoromethyl-5,6-dihydro-8H-[1,2,4]triazolo[4,3-a]pyrazin-7-yl)-thieno[2,3-d]pyrimidin-2-yl]-ethane-1,2-diamine] | 50
6 | CCCc1cc2c(N3CCn4c(nnc4C(F)(F)F)C3)nc(N3CC[C@@H](CNC(C)=O)C3)nc2s1 [Example 8-1, N-{(S)-1-[6-Propyl-4-(3-trifluoromethyl-5,6-dihydro-8H-[1,2,4]triazolo[4,3-a]pyrazin-7-yl)-thieno[2,3-d]pyrimidin-2-yl]-pyrrolidin-3-ylmethyl}-acetamide] | 35
7 | CCCC(=O)NC[C@@H]1CCN(c2nc(N3CCn4c(nnc4C(F)(F)F)C3)c3cc(CCC)sc3n2)C1 [Example 8-2, N-{(S)-1-[6-Propyl-4-(3-trifluoromethyl-5,6-dihydro-8H-[1,2,4]triazolo[4,3-a]pyrazin-7-yl)-thieno[2,3-d]pyrimidin-2-yl]-pyrrolidin-3-ylmethyl}-butyramide] | 110
8 | CCCc1cc2c(N3CCn4c(nnc4C(F)(F)F)C3)nc(N3CC[C@@H](CNC(=O)C(C)C)C3)nc2s1 [Example 8-3, N-{(S)-1-[6-Propyl-4-(3-trifluoromethyl-5,6-dihydro-8H-[1,2,4]triazolo[4,3-a]pyrazin-7-yl)-thieno[2,3-d]pyrimidin-2-yl]-pyrrolidin-3-ylmethyl}-isobutyramide] | 330
9 | CCCc1cc2c(N3CCn4c(nnc4C(F)(F)F)C3)nc(N3CC[C@H](CNC(C)=O)C3)nc2s1 [Example 8-4, N-{(R)-1-[6-Propyl-4-(3-trifluoromethyl-5,6-dihydro-8H-[1,2,4]triazolo[4,3-a]pyrazin-7-yl)-thieno[2,3-d]pyrimidin-2-yl]-pyrrolidin-3-ylmethyl}-acetamide] | 14
10 | CCCc1cc2c(N3CCn4c(nnc4C(F)(F)F)C3)nc(N3CC[C@H](CNC(=O)C(C)C)C3)nc2s1 [Example 8-6, N-{(R)-1-[6-Propyl-4-(3-trifluoromethyl-5,6-dihydro-8H-[1,2,4]triazolo[4,3-a]pyrazin-7-yl)-thieno[2,3-d]pyrimidin-2-yl]-pyrrolidin-3-ylmethyl}-isobutyramide] | 120
11 | CCCc1cc2c(N3CCn4c(nnc4C(F)(F)F)C3)nc(NCCNC(C)=O)nc2s1 [Example 8-7, N-{2-[6-Propyl-4-(3-trifluoromethyl-5,6-dihydro-8H-[1,2,4]triazolo[4,3-a]pyrazin-7-yl)-thieno[2,3-d]pyrimidin-2-ylamino]-ethyl}-acetamide] | 32
12 | CCCC(=O)NCCNc1nc(N2CCn3c(nnc3C(F)(F)F)C2)c2cc(CCC)sc2n1 [Example 8-8, N-{2-[6-Propyl-4-(3-trifluoromethyl-5,6-dihydro-8H-[1,2,4]triazolo[4,3-a]pyrazin-7-yl)-thieno[2,3-d]pyrimidin-2-ylamino]-ethyl}-butyramide] | 85
13 | CCCc1cc2c(N3CCn4c(nnc4C(F)(F)F)C3)nc(NCCNC(=O)C(C)C)nc2s1 [Example 8-9, N-{2-[6-Propyl-4-(3-trifluoromethyl-5,6-dihydro-8H-[1,2,4]triazolo[4,3-a]pyrazin-7-yl)-thieno[2,3-d]pyrimidin-2-ylamino]-ethyl}-isobutyramide] | 150
14 | CCCc1cc2c(N3CCn4c(nnc4C(F)(F)F)C3)nc(NC3CN(C(C)=O)C3)nc2s1 [Example 8-10, 1-{3-[6-Propyl-4-(3-trifluoromethyl-5,6-dihydro-8H-[1,2,4]triazolo[4,3-a]pyrazin-7-yl)-thieno[2,3-d]pyrimidin-2-ylamino]-azetidin-1-yl}-ethanone] | 110
15 | CCCc1cc2c(N3CCn4c(nnc4C(F)(F)F)C3)nc(N[C@H]3CCN(C(C)=O)C3)nc2s1 [Example 8-13, 1-{(S)-3-[6-Propyl-4-(3-trifluoromethyl-5,6-dihydro-8H-[1,2,4]triazolo[4,3-a]pyrazin-7-yl)-thieno[2,3-d]pyrimidin-2-ylamino]-pyrrolidin-1-yl}-ethanone] | 3
16 | CCCC(=O)N1CC[C@H](Nc2nc(N3CCn4c(nnc4C(F)(F)F)C3)c3cc(CCC)sc3n2)C1 [Example 8-14, 1-{(S)-3-[6-Propyl-4-(3-trifluoromethyl-5,6-dihydro-8H-[1,2,4]triazolo[4,3-a]pyrazin-7-yl)-thieno[2,3-d]pyrimidin-2-ylamino]-pyrrolidin-1-yl}-butan-1-one] | 3
17 | CCCc1cc2c(N3CCn4c(nnc4C(F)(F)F)C3)nc(N[C@H]3CCN(C(=O)C(C)C)C3)nc2s1 [Example 8-15, 2-Methyl-1-{(S)-3-[6-propyl-4-(3-trifluoromethyl-5,6-dihydro-8H-[1,2,4]triazolo[4,3-a]pyrazin-7-yl)-thieno[2,3-d]pyrimidin-2-ylamino]-pyrrolidin-1-yl}-propan-1-one] | 7
18 | CCCc1cc2c(N3CCn4c(nnc4C(F)(F)F)C3)nc(N[C@@H]3CCN(C(C)=O)C3)nc2s1 [Example 8-16, 1-{(R)-3-[6-Propyl-4-(3-trifluoromethyl-5,6-dihydro-8H-[1,2,4]triazolo[4,3-a]pyrazin-7-yl)-thieno[2,3-d]pyrimidin-2-ylamino]-pyrrolidin-1-yl}-ethanone] | 35
19 | CCCC(=O)N1CC[C@@H](Nc2nc(N3CCn4c(nnc4C(F)(F)F)C3)c3cc(CCC)sc3n2)C1 [Example 8-17, 1-{(R)-3-[6-Propyl-4-(3-trifluoromethyl-5,6-dihydro-8H-[1,2,4]triazolo[4,3-a]pyrazin-7-yl)-thieno[2,3-d]pyrimidin-2-ylamino]-pyrrolidin-1-yl}-butan-1-one] | 35
20 | CCCc1cc2c(N3CCn4c(nnc4C(F)(F)F)C3)nc(N[C@@H]3CCN(C(=O)C(C)C)C3)nc2s1 [Example 8-18, 2-Methyl-1-{(R)-3-[6-propyl-4-(3-trifluoromethyl-5,6-dihydro-8H-[1,2,4]triazolo[4,3-a]pyrazin-7-yl)-thieno[2,3-d]pyrimidin-2-ylamino]-pyrrolidin-1-yl}-propan-1-one] | 41
21 | CCCc1cc2c(N3CCn4c(nnc4C(F)(F)F)C3)nc(NC[C@@H]3CCN(C(C)=O)C3)nc2s1 [Example 8-19, 1-((S)-3-{[6-Propyl-4-(3-trifluoromethyl-5,6-dihydro-8H-[1,2,4]triazolo[4,3-a]pyrazin-7-yl)-thieno[2,3-d]pyrimidin-2-ylamino]-methyl}-pyrrolidin-1-yl)-ethanone] | 150
22 | CCCC(=O)N1CC[C@@H](CNc2nc(N3CCn4c(nnc4C(F)(F)F)C3)c3cc(CCC)sc3n2)C1 [Example 8-20, 1-((S)-3-{[6-Propyl-4-(3-trifluoromethyl-5,6-dihydro-8H-[1,2,4]triazolo[4,3-a]pyrazin-7-yl)-thieno[2,3-d]pyrimidin-2-ylamino]-methyl}-pyrrolidin-1-yl)-butan-1-one] | 410
23 | CCCc1cc2c(N3CCn4c(nnc4C(F)(F)F)C3)nc(NC[C@@H]3CCN(C(=O)C(C)C)C3)nc2s1 [Example 8-21, 2-Methyl-1-((S)-3-{[6-propyl-4-(3-trifluoromethyl-5,6-dihydro-8H-[1,2,4]triazolo[4,3-a]pyrazin-7-yl)-thieno[2,3-d]pyrimidin-2-ylamino]-methyl}-pyrrolidin-1-yl)-propan-1-one] | 270
24 | CCCc1cc2c(N3CCn4c(nnc4C(F)(F)F)C3)nc(NC[C@H]3CCN(C(C)=O)C3)nc2s1 [Example 8-22, 1-((R)-3-{[6-Propyl-4-(3-trifluoromethyl-5,6-dihydro-8H-[1,2,4]triazolo[4,3-a]pyrazin-7-yl)-thieno[2,3-d]pyrimidin-2-ylamino]-methyl}-pyrrolidin-1-yl)-ethanone] | 220
25 | CCCC(=O)N1CC[C@H](CNc2nc(N3CCn4c(nnc4C(F)(F)F)C3)c3cc(CCC)sc3n2)C1 [Example 8-23, 1-((R)-3-{[6-Propyl-4-(3-trifluoromethyl-5,6-dihydro-8H-[1,2,4]triazolo[4,3-a]pyrazin-7-yl)-thieno[2,3-d]pyrimidin-2-ylamino]-methyl}-pyrrolidin-1-yl)-butan-1-one] | 570
26 | CCCc1cc2c(N3CCn4c(nnc4C(F)(F)F)C3)nc(NC[C@H]3CCN(C(=O)C(C)C)C3)nc2s1 [Example 8-24, 2-Methyl-1-((R)-3-{[6-propyl-4-(3-trifluoromethyl-5,6-dihydro-8H-[1,2,4]triazolo[4,3-a]pyrazin-7-yl)-thieno[2,3-d]pyrimidin-2-ylamino]-methyl}-pyrrolidin-1-yl)-propan-1-one] | 1400

Source: patent publication US20110166121A1 (LG LIFE SCIENCES LTD., priority 2008, published 2011)
